For assay [1], the system named is human myeloma cell lines (HMCLs). The experiment in a line: Growth assay for myeloma cells (Cell Titer Glo, 4 days, graded DNMTi concentrations). Type of assay: cell-based. The conditions noted are these: for IC50: Homo sapiens, 5-azacitidine. The method, then:
HMCLs were cultured for 4 days in 96-well flat-bottom microtiter plates in RPMI 1640 medium, 10% FCS, 2 ng/ml IL-6 culture medium (control), with graded decitabine concentrations. Data are mean values plus or minus standard deviation (SD) of 5 experiments determined on sextuplet culture wells.
HMCLs were cultured for 4 days in 96-well flat-bottom microtiter plates in RPMI 1640 medium, 10% FCS, 2 ng/ml IL-6 culture medium (control), and graded 5-azacitidine concentrations. Data are mean values plus or minus standard deviation (SD) of 5 experiments determined on sextuplet culture wells.
HMCLs were cultured for 4 days in 96-well flat-bottom microtiter plates in RPMI 1640 medium, 10% FCS, 2 ng/ml IL-6 culture medium (control), with graded decitabine concentrations. Cell growth was evaluated by quantifying intracellular ATP amount with a Cell Titer Glo Luminescent Assay (Promega, Madison, Wis.) with a Centro LB 960 luminometer (Berthold Technologies, Bad Wildbad, Germany).
The inventors sought to determine whether DM Score could predict for the sensitivity of 10 HMCLs to DNMT inhibitor. Starting from a large cohort of 40 HMCLs (22), the 10 HMCLs with the highest or lowest DM Score were selected to assay decitabine sensitivity.
HMCLs were cultured with graded 5-azacitidine (Sigma, St. Louis, Mo.) concentrations. HMCLs cell growth was quantified with a Cell Titer Glo Luminescent Assay (Promega, Madison, Wis.) and half inhibitory concentration (IC50) was determined using GraphPad Prism (http://www.graphpad.com/scientific-software/prism/).
(In general: In ATP-based viability assays light output follows the ATP content of the culture.)

Assay [2] relates to primary myeloma cells of patients (CD138+ viable plasma cells). Kind of assay: Mononuclear cell culture of patients' tumor samples, count of viable CD138+ myeloma cells by flow cytometry. Format: cell-based, human. The conditions noted are these: primary MMCs of high DM Score patients (N=7) versus low DM Score patients (N=7), P<0.05. The method, then: Mononuclear cells from tumor samples of 12 patients with MM were cultured for 4 days in the presence of IL-6 (2 ng/ml) with or without graded decitabine concentrations. At day 4 of culture, the cell count and the viability were determined and the percentage of CD138^+ viable plasma cells was determined by flow cytometry. Black color represents patients with high DM Score (N=6) and white represents patients with low DM Score values (N=6).
Mononuclear cells from tumor samples of 14 patients with MM were cultured for 4 days in the presence of IL-6 (2 ng/ml) with or without graded 5-azacitidine concentrations. At day 4 of culture, the count of viable CD138′ MMCs was determined using flow cytometry. The black columns represent the mean±SD of primary myeloma cell counts (expressed as the percentage of the count without adding 5-azcytidine) of the 7 patients with a low DM Score and the white columns that of the 7 patients with a high DM Score.
Mononuclear cells from tumor samples of 12 patients with MM (agreement of the Center for Biological Resources of Montpellier University Hospital (N° DC-2008-417)) were cultured for 4 days at 2×10^5 cells/ml in RPMI 1640 medium, 10% FCS, 2 ng/ml IL-6, with or without graded concentrations of decitabine. In each culture group, viability and cell counts were assayed and MMCs were stained with an anti-CD138-PE mAb (Immunotech, Marseille, France) as previously described (32).
Primary myeloma cells of 14 patients were cultured with or without graded concentrations of 5-azacitidine and MMC cytotoxicity evaluated using anti-CD138-PE mAb (Immunotech, Marseille, France) as described (Jourdan, et al 1998; Mahtouk, et al 2004; Moreaux, et al 2012).

Structures are written as SMILES. Like-named read-outs stand apart in the source and are kept apart here.

By IC50 is commonly meant the point on the concentration scale where inhibition reaches its midpoint. For the compound `Nc1ncn([C@@H]2O[C@H](CO)[C@@H](O)[C@H]2O)c(=O)n1` [5-azacitidine, 5-Azacytidine], in assay [1] (HMCLs with high DM Score versus low DM Score, P=0.01), the “fold higher 5-azacitidine sensitivity” value is 3 fold. For the same compound, the IC50 is 1.12 to 8.25 µM in assay [1] (6 HMCLs with high DM Score, read-out: IC50 range); 2.43 µM in assay [1] (6 HMCLs with high DM Score, read-out: median IC50); 5.73 to 27.9 µM in assay [1] (6 HMCLs with low DM Score, read-out: IC50 range); 7.45 µM in assay [1] (6 HMCLs with low DM Score, read-out: median IC50). Moreover, the “fold higher 5-azacytidine sensitivity” value in assay [2] worked out at 1.6 fold.

These data come from US20150218654A1, “METHODS FOR PREDICTING MULTIPLE MYELOMA TREATMENT RESPONSE” (INSERM (INSTITUT NATIONAL DE LA SANTÉ ET DE LA RE- CHERCHE …, priority 2012, published 2015).
